≈ marks a conversion by molar mass, not a printed value.
Columns and labels:
[1] = tested on: Pyrenophora teres; assay: Agar well inhibition zone, Pyrenophora teres (Pt); format: cell-based; parameters: key to inhibition zone Pt: clear; diffuse; very diffuse; +: very weak; conditions: 15 μl per well, 3 days at 25° C.
Experimental: Pyrenophora teres (Pt) net blotch disease
(§1) Each of the above mentioned 9 pathogens were separately innoculated into 100 ml of potato dextrose (PD) bouillon and shaken at 200 rpm at 25° C. for 7 days. The mycelium was harvested and homogenized for about 10 seconds in a Warring blender and 1-5 ml of the blended mycelium was transferred to petri dishes with a diameter of 14 cm. […] 20 ml of potato dextrose agar (PDA) having a temperature of 45° C. were poured into each of the petri dishes and thorougly mixed with the blended mycelium present therein. When the agar had solidified, wells of a diameter of 4 mm were punched in the agar, and 15 μl of test solutions containing varicus concentrations of compound Ia, Ib and IIa dissolved in ethanol was applied to each well. The plates were incubated for three days at 25° C. and the inhibition zones measured (in mm). […]

[2] = tested on: mouse peritoneal macrophage; assay: Mouse peritoneal macrophage assay, cellular ATP (viability); format: cell-based
[3] = tested on: Phoma lingam; assay: Agar well inhibition zone, Phoma lingam (Pl); format: cell-based; conditions: Plenodomus lingam, 72 h, 15 μl per well, 3 days at 25° C., read-out: inhibition zone P1
Experimental: Phoma lingam (Pl) canker and dry rot
as §1

[4] = tested on: Botrytis cinerea; assay: Agar well inhibition zone, Botrytis cinerea, mycelium plates (Bc1); format: cell-based; parameters: key to inhibition zone Bc1: clear; diffuse; very diffuse; +: very weak; conditions: 15 μl per well, 3 days at 25° C.
Experimental: (§2) Botrytis cinerea (Bc) grey mould
as §1

[5] = tested on: Phoma betae; assay: Agar well inhibition zone, Phoma betae (Pb); format: cell-based; conditions: Neocamarosporium betae, 72 h, 15 μl per well, 3 days at 25° C.
Experimental: Phoma betae (Pb) seedling black rot, black leg
as §1

[6] = tested on: plant pathogenic fungi; assay: In vitro fungicidal activity spectrum over the pathogens tested; format: cell-based
Experimental: The following pathogens were used:
(§3) Each of the above mentioned 9 pathogens were separately innoculated into 100 ml of potato dextrose (PD) bouillon and shaken at 200 rpm at 25° C. for 7 days. The mycelium was harvested and homogenized for about 10 seconds in a Warring blender and 1-5 ml of the blended mycelium was transferred to petri dishes with a diameter of 14 cm. […] 20 ml of potato dextrose agar (PDA) having a temperature of 45° C. were poured into each of the petri dishes and thorougly mixed with the blended mycelium present therein. When the agar had solidified, wells of a diameter of 4 mm were punched in the agar, and 15 μl of test solutions containing varicus concentrations of compound Ia, Ib and IIa dissolved in ethanol was applied to each well. The plates were incubated for three days at 25° C. and the inhibition zones measured (in mm).
(§4) The experiments were repeated and in the second run, Bc plates were made from Bc spores (the plates were termed Bc2) as such plates may result in a more uniform growth.

[7] = tested on: Ascochyta pisi; assay: Agar well inhibition zone, Ascochyta pisi (Ap); format: cell-based; conditions: Ascochyta pisi, 72 h, 15 μl per well, 3 days at 25° C.
Experimental: Ascochyta pisi (Ap) leaf, stem and pod rot
as §1

[8] = tested on: Alternaria alternata; assay: Agar well inhibition zone, Alternaria alternata (Aa); format: cell-based; conditions: Alternaria alternata, 72 h, 15 μl per well, 3 days at 25° C.
Experimental: Alternaria alternata (Aa) black mould coverings, leaf spot
as §3, §4

[9] = tested on: mouse peritoneal macrophage; assay: Mouse peritoneal macrophage assay, chemiluminescence (phagocytosis); format: cell-based
[10] = tested on: Botrytis cinerea; assay: Agar well inhibition zone, Botrytis cinerea, plates made from spores (Bc2); format: cell-based
Experimental: as §2, §3, §4

[11] = tested on: Botrytis cinerea; assay: Fungicidal activity in vivo against Botrytis cinerea on sprayed plants; conditions: spray to run off, assessed after 6 days
Experimental: Activity of the compounds Ia and Ib against Botrytis cinerea Host: Lycopersicon esculentum (tomato, var. First in Field) […] plants (5 weeks old) were sprayed to run off with liquid solutions using a handhold sprayer (Bink Bullows 900). The solution (70% EtOH) had different concentrations of the compounds Ia and Ib. The plants were kept 24 hours in a green house to dry before they were inoculated with a spore suspension containing 1×10^5 spores/ml in 25% grape juice. The inoculation was carried out with a handhold atomizer (Wagner, Pico Bel). The plants were then incubated (16 hours light (1000 lux) and 8 hours dark) at 15°-20° C. in clear polyethylene bags to raise the relative humidity to 95-100%. After 6 days the assessment was done.

[12] = tested on: Monilinia fructigena; assay: Agar well inhibition zone, Monilinia fructigena (Mf); format: cell-based; conditions: Monilinia fructigena, 72 h, 15 μl per well, 3 days at 25° C.
Experimental: Monilinia fructigena (Mf) brown rot, fruit rot
as §1

[13] = tested on: Sclerotinia sclerotiorum; assay: Agar well inhibition zone, Sclerotinia sclerotiorum (Ss); format: cell-based; conditions: Sclerotinia sclerotiorum, 72 h, 15 μl per well, 3 days at 25° C.
Experimental: Sclerotinia sclerotiorum (Ss) white mould disease, stem rot
as §1

With `C[C@@H]1Cc2cc(O)cc(O)c2C(=O)O[C@H](C)CC(=O)O[C@H](CO)CC(=O)O[C@H](C)Cc2cc(O)cc(O)c2C(=O)O[C@H](C)CC(=O)O1` [Compound Ia] the “inhibition zone Pt” value ([1]; 0.05 mg/ml) was “+”, the zone of inhibition at 10 µg/mL ([1]; Pyrenophora teres, 72 h, 0.01 mg/ml) was 0 mm and the zone of inhibition at 500 µg/mL ([1]; Pyrenophora teres, 72 h, 0.5 mg/ml) was 35 mm. The zone of inhibition at 1000 µg/mL ([1]; Pyrenophora teres, 72 h, 1.0 mg/ml) was 40 mm, the IC50 [2] was 2.5 µg/mL (≈ 3.77 µM) and the zone of inhibition at 10 µg/mL ([3]; 0.01 mg/ml) was 0 mm. It also gave a zone of inhibition at 50 µg/mL ([3]; 0.05 mg/ml) of 18 mm, a zone of inhibition at 500 µg/mL ([3]; 0.5 mg/ml) of 42 mm and a zone of inhibition at 1000 µg/mL ([3]; 1.0 mg/ml) of 49 mm. For the same compound, the “inhibition zone Bc1” value ([4]; 0.05 mg/ml) was “+”, the “inhibition zone Bc1” value ([4]; 0.5 mg/ml) was “+” and the “inhibition zone Bc1” value ([4]; 1.0 mg/ml) was “+”. For the same compound, the zone of inhibition at 10 µg/mL ([4]; Botrytis cinerea, 72 h, 0.01 mg/ml) was 0 mm, the zone of inhibition at 10 µg/mL ([5]; 0.01 mg/ml) was 0 mm and the zone of inhibition at 50 µg/mL ([5]; 0.05 mg/ml) was 0 mm. The zone of inhibition at 500 µg/mL ([5]; 0.5 mg/ml) was 0 mm, the zone of inhibition at 1000 µg/mL ([5]; 1.0 mg/ml) was 0 mm and the activity spectrum ([6]; all pathogens tested, Table 2) was “more effective than the compound of formula IIa”. For the same compound, the “number of pathogens against which compound was active” value ([6]; with respect to Bc only for the plate containing spores) was 5 pathogens, the zone of inhibition at 10 µg/mL ([7]; 0.01 mg/ml) was 0 mm and the zone of inhibition at 50 µg/mL ([7]; 0.05 mg/ml) was 0 mm. The zone of inhibition at 500 µg/mL ([7]; 0.5 mg/ml) was 0 mm, the zone of inhibition at 1000 µg/mL ([7]; 1.0 mg/ml) was 0 mm and the zone of inhibition at 10 µg/mL ([8]; 0.01 mg/ml) was 0 mm. The zone of inhibition at 50 µg/mL ([8]; 0.05 mg/ml) was 0 mm, the zone of inhibition at 500 µg/mL ([8]; 0.5 mg/ml) was 0 mm and the zone of inhibition at 1000 µg/mL ([8]; 1.0 mg/ml) was 0 mm. The IC50 [9] was 2 µg/mL (≈ 3.02 µM), the “appearance of Bc zones” value ([10]; Bc plates) was “very diffuse” and the “time of incubation after which Bc zones could be seen” value ([10]; Bc plates) was no less than 3 days. The zone of inhibition at 50 µg/mL ([10]; Botrytis cinerea, 72 h, 0.05 mg/ml, 15 μl per well, 3 days at 25° C., plates from spores) was 12 mm, the zone of inhibition at 500 µg/mL ([10]; Botrytis cinerea, 72 h, 0.5 mg/ml, 15 μl per well, 3 days at 25° C., plates from spores) was 48 mm and the zone of inhibition at 1000 µg/mL ([10]; Botrytis cinerea, 72 h, 1.0 mg/ml, 15 μl per well, 3 days at 25° C., plates from spores) was 56 mm. For the same compound, the protection ([11]; 37 ppm) was “approx. 10%”, the protection ([11]; 375 ppm) was “approx. 60%” and the protection ([11]; 1000 ppm) was “approx. 60%”. It also gave a zone of inhibition at 10 µg/mL ([12]; 0.01 mg/ml) of 20 mm, a zone of inhibition at 50 µg/mL ([12]; 0.05 mg/ml) of 34 mm and a zone of inhibition at 500 µg/mL ([12]; 0.5 mg/ml) of 45 mm. The zone of inhibition at 1000 µg/mL ([12]; 1.0 mg/ml) was 50 mm, the zone of inhibition at 10 µg/mL ([13]; 0.01 mg/ml) was 0 mm and the zone of inhibition at 50 µg/mL ([13]; 0.05 mg/ml) was 24 mm. It also gave a zone of inhibition at 500 µg/mL ([13]; 0.5 mg/ml) of 42 mm and a zone of inhibition at 1000 µg/mL ([13]; 1.0 mg/ml) of 50 mm.

— patent US5641804A, “Fungicidal compound comprising a cyclic polylactone” (Novo Nordisk A/S, priority 1992, dated 1997)
